Results reported in the SangsterLogP compilation.
Where a SMILES comes first, the peptide text is derived from it.

How the values were obtained:
[1] = method code SF-RC, from DOI: 10.1002/jlcr.1076; conditions: pH 7.4
[2] = method code SF-RC, from DOI: 10.1016/0361-9230(85)90153-4, PMID: 2413968
[3] = method code SF-AS, from DOI: 10.1016/j.bmc.2007.10.035, PMID: 18029186; conditions: pH 7.4
[4] = not given; remark: listed apart in the source
[5] = method code SF-AS, from DOI: 10.1016/s0022-5347(24)07568-2, PMID: 4149453; conditions: pH 7.5
[6] = method code SF-HPLC, from DOI: 10.1002/jps.2600800905, PMID: 1800703
[7] = method code SF-RC, from DOI: 10.1016/j.nucmedbio.2016.01.003, PMID: 27067043; conditions: pH 7.4
[8] = method code SF-HPLC, from DOI: 10.1016/0378-5173(89)90313-x; conditions: pH 7.4
[9] = method code SF-AS, from DOI: 10.1248/bpb1978.7.120, PMID: 6427444
[10] = method code SF-AS, from DOI: 10.1016/s0014-827x(98)00024-x, PMID: 9679281
[11] = method code SF-AS, from PMID: 1586384
[12] = method code SF-AS, from DOI: 10.1016/s0022-3565(25)38749-5, PMID: 8182532; conditions: pH 7.4
[13] = method code SF-AS, from DOI: 10.1016/j.arabjc.2011.11.013
[14] = method code SF-RC, from DOI: 10.1016/j.bmc.2006.11.022, PMID: 17293116; conditions: pH 7.4
[15] = method code SF-RC, from DOI: 10.1016/j.bmc.2015.06.036, PMID: 26145817; conditions: pH 7.4
[16] = method code SF-RC, from DOI: 10.1016/j.nucmedbio.2005.06.001, PMID: 16253804; conditions: pH 7.4
[17] = not given; remark: listed apart in the source
[18] = method code SF-RC, from DOI: 10.1016/j.nucmedbio.2003.12.003, PMID: 15093819; conditions: pH 7.0
[19] = not given; remark: listed apart in the source
[20] = method code SF-HPLC, from DOI: 10.1016/j.bmc.2009.01.040, PMID: 19208447; conditions: pH 7.0
[21] = method code SF, from DOI: 10.1002/ps.2780350215
[22] = method code SF, from DOI: 10.1016/j.nucmedbio.2007.12.009, PMID: 18355686; conditions: pH 7.4
[23] = method code RP-TLC, from DOI: 10.1016/s0021-9673(03)00617-4, PMID: 12830921
[24] = method code SF-GR, from DOI: 10.1016/s0022-3565(25)32611-x, PMID: 7230009
[25] = not given; remark: listed apart in the source
[26] = method code SF-HPLC, from DOI: 10.1016/j.ejmech.2003.12.002, PMID: 15051170

## COc1cc2c(Nc3ccc(Cl)cc3F)ncnc2cc1OCCCN1CCOCC1
other
  logP: 3.6

## COc1ccc2c(c1)C1(C)CCC3c4cc(I)c(O)cc4CCC3C1C2 (stereo not drawn)
[1]
  logD: 1.8

## NC(=O)CC[C@@H]1NC(=O)[C@H](Cc2ccccc2)NC(=O)[C@H](Cc2ccc(O)cc2)NC(=O)[C@@H](N)CSSC[C@@H](C(=O)N2CCC[C@H]2C(=O)N[C@@H](CCCN=C(N)N)C(=O)NCC(N)=O)NC(=O)[C@H](CC(N)=O)NC1=O
[2]
  logP: -2.15

## CC(=O)NC1C(OCCN(C)C(=O)Cn2ccnc2[N+](=O)[O-])OC(COC(C)=O)C(OC(C)=O)C1OC(C)=O (stereo not drawn)
[3]
  logD: -1.29

## CC(C)NCC(COc1cccc2ccccc12)OC(=O)C1CC1 (stereo not drawn)
[4]
  logP: 3.68

## CCOC(=O)CC[C@H](NC(=O)c1ccc(N(C)Cc2cnc3nc(N)nc(N)c3n2)cc1)C(=O)OCC
[5]
  logD: 0.98

## CC[C@H](C)C(=O)O[C@H]1CCC=C2C=C[C@H](C)[C@H](CC[C@@H]3C[C@@H](O)CC(=O)O3)[C@H]21
[6]; pH 7.0
  logD: 3.85

## C=CC(=O)Nc1ccc(S(=O)(=O)N2CCN(C(=O)C34CC5CC(CC(C5)C3)C4)CC2)cc1
[7]
  logD: 2.67

## COc1ccc2c(c1)C1(C)CCC3c4ccc(O)c(I)c4CCC3C1C2 (stereo not drawn)
[1]
  logD: 2.5

## CN1C=CCC(C(=O)NCCOC(=O)CCCc2ccc(N(CCCl)CCCl)cc2)=C1
[8]
  logD: 2.16

## CO[C@@]12[C@H](COC(N)=O)C3=C(C(=O)C(C)=C(N)C3=O)N1C[C@H]1[C@@H]2N1C(=O)c1ccccc1
[9]
  logP: 1.89

## CC(=O)OCC1OC(OCCN(C)C(=O)n2ccnc2[N+](=O)[O-])C(OC(C)=O)C(OC(C)=O)C1OC(C)=O (stereo not drawn)
[3]
  logD: -0.98

## CC(C)C[C@H](NC(=O)[C@@H]1CCCN1C(=O)[C@@H](N)Cc1ccc(O)cc1)C(=O)NCC(N)=O (H-YPLG-NH2)
[2]
  logP: 0.06

## Cc1[nH]c2ccccc2c1Cc1nnc(Nc2cccc3ccccc23)s1
[10]
  logP: 3.78

## CN1C=CCC(C(=O)NC2CCC(OC(=O)CCCc3ccc(N(CCCl)CCCl)cc3)CC2)=C1 (stereo not drawn)
[8]
  logD: 2.85

## CC(=O)OCOC(=O)c1cn2c3c(c(N4CCN(C)CC4)c(F)cc3c1=O)OCC2C (stereo not drawn)
[11]
  logP: 0.02

## CC(C)CCC(=O)CC1c2ccccc2C(=O)N1c1ccc2ccc(Cl)nc2n1 (stereo not drawn)
[12]
  logD: 4.8

## O=C(CNc1ccc([N+](=O)[O-])cc1)Nc1ccc(Cl)cc1C(=O)c1ccccc1
[13]
  logP: 4.68

## CNc1ccc(-c2nc3ccc(-c4nc5ccc(F)cc5s4)cc3s2)cc1
[14]
  logD: 2.48

## CCN(CCOCCF)c1cc(C)nc2c(-c3ccc(Cl)cc3Cl)c(C)nn12
[15]
  logD: 3.8

## CCC(C)(C)C(=O)O[C@H]1C[C@@H](C)C=C2C=C[C@H](C)[C@H](CC[C@@H](O)C[C@@H](O)CC(=O)O)[C@H]21 (relative stereo)
[6]; pH 2.0
  logD: 4.47

## CNc1ccc(C=Cc2ccc(OCCOCCOCCOCCF)cc2)cc1
[16]
  logD: 2.05

## CNc1ccc(C=Cc2ccc(OCCOCCOCCOCCOCCF)cc2)cc1
[16]
  logD: 2.28

## CC1CC2C3CCC4=CC(=O)CCC4C3CCC2(C)C1C(=O)CO (stereo not drawn)
[17]
  logP: 4.02

## O=C(NCCc1ccc(S(=O)(=O)NC2CCCCC2)cc1)c1cc(I)ccc1OCCF
[18]
  logD: 2.15

## COC(=O)CN1CCN(C(COCc2cc(C(F)(F)F)cc(C(F)(F)F)c2)c2ccccc2)CC1 (stereo not drawn)
[19]
  logP: 3.11

## Nc1ccc(S(=O)(=O)NCC(=O)Nc2ccc(Cl)cc2C(=O)c2ccccc2)cc1
[13]
  logP: 3.24

## S=c1[nH]nc(Cn2ccc3ccccc32)n1-c1cccc2ccccc12
[10]
  logP: 3.12

## CC(C(=O)OCC(O)C(O)C(O)C(O)C=O)c1cccc(C(=O)c2ccccc2)c1 (stereo not drawn)
[20]
  logD: 1.26

## CCc1cccc(CC)c1NC(=O)c1c(C)n(CCc2ccccc2)c(C)c(Br)c1=O
[21]
  logP: 3.63

## CCC(C)N(C)C(=O)c1cc2ccccc2c(-c2ccccc2Cl)n1 (stereo not drawn)
[22]
  logD: 4

## COC(=O)CC[C@H](NC(=O)c1cc(Cl)c(N(C)Cc2cnc3nc(N)nc(N)c3n2)c(Cl)c1)C(=O)OC
[5]
  logD: 1.69

## CC1CC2C3CCC4=CC(=O)CCC4C3CCC2(C)C1C(=O)CF (stereo not drawn)
[17]
  logP: 4.66

## CCC12C=C(C(=O)OCCO)n3c4c(c5ccccc53)CCN(CCC1)C42 (stereo not drawn)
[23]
  logP: 3.62

## CC1(C)[C@H]2O[C@H]2[C@@H]2[C@]1(O)[C@H](O)[C@@H](O)C13C[C@@](C)(O)[C@@H](CC[C@@]1(O)[C@@]2(C)O)[C@@H]3O
[24]
  logP: -0.57

## CCCCn1c(C)cc(=O)c(C(=O)Nc2c(CC)cccc2CC)c1C
[21]
  logP: 2.52

## CCCCCCCCCCOc1ccc(C(=O)Nc2cc(C(=O)NCCCC)ccc2SC)cc1
[12]
  logD: 5.2

## CC(=O)[C@@]1(C)CC[C@H]2[C@@H]3CCC4=CC(=O)CCC4=C3CC[C@@]21C
[25]
  logP: 4.34

## CN1CCN(C(COCc2cc(C(F)(F)F)cc(C(F)(F)F)c2)c2ccccc2)CC1 (stereo not drawn)
[19]
  logP: 3.2

## O=C(NCCc1ccc(S(=O)(=O)NC2CCCCC2)cc1)c1cc(Cl)ccc1OCCF
[18]
  logD: 2.09

## CC(C(=O)OCC(O)C(O)C(O)C(O)CO)c1cccc(C(=O)c2ccccc2)c1 (stereo not drawn)
[20]
  logD: 0.78

## CC1(C)[C@@H](O)C[C@H]2[C@](C)(O)[C@@H]3CC[C@@H]4[C@@H](O)[C@@]3(C[C@@H](O)[C@@]21O)C[C@@]4(C)O
[24]
  logP: 0.27

## CO[C@@]12[C@H](COC(N)=O)C3=C(C(=O)C(C)=C(N)C3=O)N1C[C@H]1[C@@H]2N1Cc1ccccc1 (stereo partly drawn)
[9]
  logP: 1.59

## CC(C)NCC(COc1cccc2ccccc12)OC(=O)C(C)C (stereo not drawn)
[4]
  logP: 3.52

## CCC12C=C(C(=O)OCCCO)n3c4c(c5ccccc53)CCN(CCC1)C42 (stereo not drawn)
[23]
  logP: 3.89

## COc1ccc2nc(-c3ccc4nc(-c5ccc(N)cc5)sc4c3)sc2c1
[14]
  logD: 1.56

## CC(=O)OC(C)OC(=O)c1cn2c3c(c(N4CCN(C)CC4)c(F)cc3c1=O)OCC2C (stereo not drawn)
[11]
  logP: 0.26

## CC#CC1(O)CC[C@H]2[C@@H]3CCC4=CC(=O)CCC4=C3C(c3ccc(N(C)C)cc3)C[C@@]21C (stereo partly drawn)
[25]
  logP: 4.69

## CCN(CCCCF)c1cc(C)nc2c(-c3ccc(Cl)cc3Cl)c(C)nn12
[15]
  logD: 2.81

## COc1cc2c(Nc3ccc(Cl)cc3F)ncnc2cc1OCCCN1CCN(C)CC1
other
  logP: 3.3

## COC(=O)C(C)NP(=O)(OCC1C=CC(n2cc(C)c(=O)[nH]c2=O)O1)Oc1cc(Cl)ccc1Cl (stereo not drawn)
[26]
  logP: 1.41

## COC(=O)C(C)NP(=O)(OCC1C=CC(n2cc(C)c(=O)[nH]c2=O)O1)Oc1ccc(N(C)C)cc1 (stereo not drawn)
[26]
  logP: 0.76

## CC(=O)N(Cc1ccccc1OCCF)c1cnccc1Oc1ccccc1
[22]
  logD: 2.99
